This is an account of results in ChEMBL document CHEMBL1201862, “PubChem BioAssay data set” (2004).

The target of assay [1] is Voltage-gated inwardly rectifying potassium channel KCNH2 (Homo sapiens, UniProt Q12809). The settings on record: Potency.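 Further: confirmatory quantitative high-throughput screen measuring inhibition of hERG channel activity.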
The target in assay [2] is T1, Apoptotic protease-activating factor 1 (Homo sapiens, UniProt O14727).
T1 sequence (O14727 whole entry): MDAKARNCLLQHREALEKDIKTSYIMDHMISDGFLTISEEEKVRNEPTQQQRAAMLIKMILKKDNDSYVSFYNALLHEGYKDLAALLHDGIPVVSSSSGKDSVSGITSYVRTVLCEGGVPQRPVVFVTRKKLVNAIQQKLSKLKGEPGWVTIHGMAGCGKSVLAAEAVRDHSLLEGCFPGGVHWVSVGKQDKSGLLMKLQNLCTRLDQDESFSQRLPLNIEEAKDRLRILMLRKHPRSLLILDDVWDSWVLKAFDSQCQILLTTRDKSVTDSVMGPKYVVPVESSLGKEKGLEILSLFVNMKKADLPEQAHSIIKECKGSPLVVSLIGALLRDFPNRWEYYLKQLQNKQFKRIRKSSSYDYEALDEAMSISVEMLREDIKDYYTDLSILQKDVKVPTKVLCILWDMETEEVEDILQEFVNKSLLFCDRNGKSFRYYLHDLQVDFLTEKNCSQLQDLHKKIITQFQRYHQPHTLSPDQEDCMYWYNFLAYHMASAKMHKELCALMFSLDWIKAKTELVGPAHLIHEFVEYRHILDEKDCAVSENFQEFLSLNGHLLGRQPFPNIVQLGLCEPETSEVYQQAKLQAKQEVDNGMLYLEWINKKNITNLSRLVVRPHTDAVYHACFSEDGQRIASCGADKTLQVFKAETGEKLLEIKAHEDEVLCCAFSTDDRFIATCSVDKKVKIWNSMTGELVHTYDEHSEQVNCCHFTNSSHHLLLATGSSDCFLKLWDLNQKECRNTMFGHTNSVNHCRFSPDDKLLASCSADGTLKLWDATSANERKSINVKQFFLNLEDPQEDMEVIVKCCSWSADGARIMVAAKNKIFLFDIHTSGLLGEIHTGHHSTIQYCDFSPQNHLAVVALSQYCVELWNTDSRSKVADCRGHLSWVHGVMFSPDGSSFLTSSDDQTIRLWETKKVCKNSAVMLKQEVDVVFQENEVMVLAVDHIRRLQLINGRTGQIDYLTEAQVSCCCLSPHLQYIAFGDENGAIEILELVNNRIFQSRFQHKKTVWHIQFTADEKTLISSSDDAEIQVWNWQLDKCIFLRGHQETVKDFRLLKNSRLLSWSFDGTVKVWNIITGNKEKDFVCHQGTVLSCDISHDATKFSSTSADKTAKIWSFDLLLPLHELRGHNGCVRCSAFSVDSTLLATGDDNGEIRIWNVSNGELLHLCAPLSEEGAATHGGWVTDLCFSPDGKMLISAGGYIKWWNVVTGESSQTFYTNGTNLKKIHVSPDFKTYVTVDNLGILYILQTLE
In kind it is functional.

Assay [3] addresses T2, E3 ubiquitin-protein ligase XIAP (Homo sapiens, UniProt P98170). Put plainly: small molecules displacing peptide from XIAP – biochemical, IAP family, fluorescence polarization (AID 1018). It is filed as functional.
Assay [4] concerns the target T2, E3 ubiquitin-protein ligase XIAP. Briefly: Counter Screen using XIAP-Bir3 for Chemical Antagonists of Bir1/2 domains of IAP-family anti-apoptotic proteins. [Related pubchem assays (depositor defined):AID1018, AID1449, AID1514, AID1638, AID1749, AID1750, AID488957, AID488963].
Assay [5] deals with T3, Orexin/Hypocretin receptor type 1 (Homo sapiens, UniProt O43613).
T3 sequence (O43613 whole entry): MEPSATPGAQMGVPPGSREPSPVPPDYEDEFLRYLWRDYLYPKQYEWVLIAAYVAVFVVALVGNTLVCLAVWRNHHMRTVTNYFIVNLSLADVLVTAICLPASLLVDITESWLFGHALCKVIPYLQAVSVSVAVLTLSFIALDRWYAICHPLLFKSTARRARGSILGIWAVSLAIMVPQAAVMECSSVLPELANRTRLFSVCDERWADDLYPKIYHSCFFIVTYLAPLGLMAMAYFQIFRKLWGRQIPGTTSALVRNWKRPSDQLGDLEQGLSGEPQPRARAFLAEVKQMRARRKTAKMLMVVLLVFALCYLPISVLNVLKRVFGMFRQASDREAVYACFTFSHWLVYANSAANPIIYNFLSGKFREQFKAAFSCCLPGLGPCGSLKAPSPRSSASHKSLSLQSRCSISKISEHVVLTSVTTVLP
Put plainly: Homogeneous Time Resolved Fluorescence (HTRF)-based cell-based high throughput dose response assay for antagonists of the orexin 1 receptor (OX1R; HCRTR1). [Related pubchem assays (depositor defined):AID434989, AID435008, AID463079, AID485270, AID492963, AID492964, AID492965, AID493232, AID504717, AID504718]. In kind it is functional.

For assay [6], the target named is T3, Orexin/Hypocretin receptor type 1. Briefly: Fluorescence-based cell-based high throughput dose response assay for antagonists of the orexin 1 receptor (OX1R; HCRTR1). [Related pubchem assays (depositor defined):AID434989, AID435008, AID463079, AID485270, AID492963, AID492964, AID492965, AID493232, AID504717, AID504718]. It is filed as functional.
The subject of the next assay is CHO-K1. Put plainly: Counterscreen for antagonists of the orexin 1 receptor (OX1R; HCRTR1): Homogeneous time resolved fluorescence (HTRF)-based cell-based dose response assay to identify antagonists of the parental CHO-K1 cell line. [Related pubchem assays (depositor defined):AID434989, AID435008, AID463079, AID485270, AID492963, AID492964, AID492965, AID493232, AID504699, AID504701]. It is filed as functional. The settings on record: Cricetulus griseus.

Assay [7] can be described thus: Counterscreen for antagonists of the orexin 1 receptor (OX1R; HCRTR1): Fluorescence-based cell-based high throughput dose response assay to identify antagonists of the parental CHO cell line. [Related pubchem assays (depositor defined):AID434989, AID435008, AID463079, AID485270, AID492963, AID492964, AID492965, AID493232, AID504699, AID504701]. In kind it is functional.

The target of the next assay is Cytochrome P450 3A4 (Homo sapiens, UniProt P08684).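 Further: CYP3A4 tested as one member of a cytochrome P450 panel screen.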
The target in assay [8] is DNA dC->dU-editing enzyme APOBEC-3A (Homo sapiens, UniProt P31941). Briefly: Dose Response confirmation of small molecule APOBEC3A DNA Deaminase Inhibitors via a fluorescence-based single-stranded DNA deaminase assay. [Related pubchem assays (depositor defined):AID493011, AID493024]. In kind it is functional.
Assay [9] in a line: NIH3T3 cell viability loss – ATP luminescence, mouse fibroblasts, counter-screen, dose response (AID 2010).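 Further: cells exposed to compound for about 90 hours before reading.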 It is filed as functional, cell-based.
Assay [10] can be described thus: NIH-3T3 fibroblast cytotoxicity, dose response, cytotoxicity control, cell-based, fluorescence, Alamar Blue, secondary assay (AID 2327).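 Further: NIH-3T3 mouse fibroblasts cultured with fluconazole at 8 µg/mL.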 It is filed as functional.
Assay [11] can be described thus: fluconazole-exposed Candida albicans growth modulators – fluorescence, retest, confirmation (AID 2467). It is filed as functional, cell-based.
Another assay has as its target Cytochrome P450 2C19 (Homo sapiens, UniProt P33261). Briefly: Cytochrome panel assay with activity outcomes. Panel member name: p450-cyp2c19 Compounds with AC50 equal or less than 10 uM are considered active. It is filed as functional. The settings on record: read-out: AC50.
Assay [12] is described as follows: Trypanosoma cruzi growth suppression in host cells – NIH3T3 host cells, beta-gal luminescence, confirmation (AID 2044).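 Further: intracellular parasites grown in NIH/3T3 mouse fibroblasts as host cells; luminescent beta-galactosidase reporter signal from transgenic T. cruzi replicating inside host cells; inhibitors lower the luminescence signal.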 In kind it is functional, cell-based.
Assay [13] has as its target DNA dC->dU-editing enzyme APOBEC-3G (Homo sapiens, UniProt Q9HC16). In kind it is functional.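 Further: Dose-response counterscreen measuring inhibition of APOBEC3G DNA deaminase activity, run while confirming APOBEC3A inhibitors.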
A further assay concerns the target Beta-galactosidase (Escherichia coli, UniProt Q8VNN2). Put plainly: PubChem AID 485352. It is filed as functional.
Assay [14] has as its target T4, Type-1 angiotensin II receptor (Homo sapiens, UniProt P30556).
T4 sequence (P30556 whole entry): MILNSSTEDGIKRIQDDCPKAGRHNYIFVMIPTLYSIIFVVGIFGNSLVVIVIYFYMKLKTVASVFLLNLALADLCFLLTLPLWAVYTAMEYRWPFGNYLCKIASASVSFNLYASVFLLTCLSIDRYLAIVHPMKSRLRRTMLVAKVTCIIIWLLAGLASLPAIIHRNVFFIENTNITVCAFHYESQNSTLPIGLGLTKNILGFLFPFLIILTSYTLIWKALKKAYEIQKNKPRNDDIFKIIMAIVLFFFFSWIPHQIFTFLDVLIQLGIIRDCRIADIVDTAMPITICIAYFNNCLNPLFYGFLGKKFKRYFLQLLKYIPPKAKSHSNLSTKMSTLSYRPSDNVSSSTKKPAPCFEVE
Briefly: antagonism of angiotensin II type 1 receptor – cell-based, uHTS hits, selectivity assay for APJ receptor antagonist project, dose response (AID 463214).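 Further: antagonist potency against angiotensin II stimulated AT1 response.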 In kind it is functional.

For a further assay, the system named is H9c2. Briefly: cells. In kind it is functional, cell-based. To be noted: Rattus norvegicus, H9c2, Myocardium.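 Further: confirmatory concentration-response retest of ultra-high-throughput screening hits for modulation of myocardial damage; cell death induced by hydrogen peroxide oxidative stress; compound pretreatment for 60 min then peroxide exposure for 2 h; potency is for protecting the cells against peroxide damage rather than for killing them.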
For a further assay, the system named is INS1. Briefly: INS-1E survival protection against cytokine death – cell-based, luminescence, retest, dose response (AID 449756).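 Further: cell death triggered by IL-1 beta plus TNF-alpha plus IFN-gamma mixture; protective hits raise ATP signal compared with cytokine alone wells.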 The settings on record: Rattus norvegicus. In kind it is functional.
The target of assay [15] is T5, Heat shock factor protein 1 (Mus musculus, UniProt P38532).
T5 sequence (P38532 whole entry): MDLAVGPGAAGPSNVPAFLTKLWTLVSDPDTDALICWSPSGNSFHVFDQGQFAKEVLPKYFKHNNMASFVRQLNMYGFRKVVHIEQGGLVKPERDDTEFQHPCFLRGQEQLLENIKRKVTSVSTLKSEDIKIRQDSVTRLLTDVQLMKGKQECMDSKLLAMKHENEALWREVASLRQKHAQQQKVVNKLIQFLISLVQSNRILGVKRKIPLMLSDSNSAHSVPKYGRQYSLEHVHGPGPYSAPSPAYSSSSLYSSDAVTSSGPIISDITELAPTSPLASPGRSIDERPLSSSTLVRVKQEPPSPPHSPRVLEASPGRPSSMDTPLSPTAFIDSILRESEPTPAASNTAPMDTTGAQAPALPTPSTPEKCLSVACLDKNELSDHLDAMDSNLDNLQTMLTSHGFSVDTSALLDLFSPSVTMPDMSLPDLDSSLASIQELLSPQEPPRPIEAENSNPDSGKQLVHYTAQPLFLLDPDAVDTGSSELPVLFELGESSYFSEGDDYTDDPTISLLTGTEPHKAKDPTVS
Put plainly: enhancement of HSF1-driven luciferase signal – cell-based, NIH3T3, luminescence, dose retest, confirmation (AID 435004).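 Further: stress induced by proteasome inhibitor MG132 added 30 min after compound; luciferase reporter driven by HSF1 response element in NIH3T3 cells; actives raise luminescence as potentiators of the MG132 stress response.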 In kind it is functional.

Another assay relates to Vero. Briefly: viability of Vero cells under compound – cytotoxicity control for flavivirus capping enzyme inhibitors (AID 588742). To be noted: Chlorocebus sabaeus. It is filed as functional.
The nature of assay [16]: decrease of insulin promoter-GFP reporter – imaging, high-content screening, mouse beta cells (AID 1628). The settings on record: MIN6. It is filed as functional.
Assay [17] is described as follows: MIN6 cell viability loss – mouse insulinoma, cytotoxicity control, dose response (AID 2122).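 Further: confirmatory high-throughput counterscreen run to flag cytotoxic compounds.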 It is filed as functional.

SMILES strings stand for the structures. Active and inactive are the calls of the source.

Sequence of Voltage-gated inwardly rectifying potassium channel KCNH2 (Q12809 whole entry): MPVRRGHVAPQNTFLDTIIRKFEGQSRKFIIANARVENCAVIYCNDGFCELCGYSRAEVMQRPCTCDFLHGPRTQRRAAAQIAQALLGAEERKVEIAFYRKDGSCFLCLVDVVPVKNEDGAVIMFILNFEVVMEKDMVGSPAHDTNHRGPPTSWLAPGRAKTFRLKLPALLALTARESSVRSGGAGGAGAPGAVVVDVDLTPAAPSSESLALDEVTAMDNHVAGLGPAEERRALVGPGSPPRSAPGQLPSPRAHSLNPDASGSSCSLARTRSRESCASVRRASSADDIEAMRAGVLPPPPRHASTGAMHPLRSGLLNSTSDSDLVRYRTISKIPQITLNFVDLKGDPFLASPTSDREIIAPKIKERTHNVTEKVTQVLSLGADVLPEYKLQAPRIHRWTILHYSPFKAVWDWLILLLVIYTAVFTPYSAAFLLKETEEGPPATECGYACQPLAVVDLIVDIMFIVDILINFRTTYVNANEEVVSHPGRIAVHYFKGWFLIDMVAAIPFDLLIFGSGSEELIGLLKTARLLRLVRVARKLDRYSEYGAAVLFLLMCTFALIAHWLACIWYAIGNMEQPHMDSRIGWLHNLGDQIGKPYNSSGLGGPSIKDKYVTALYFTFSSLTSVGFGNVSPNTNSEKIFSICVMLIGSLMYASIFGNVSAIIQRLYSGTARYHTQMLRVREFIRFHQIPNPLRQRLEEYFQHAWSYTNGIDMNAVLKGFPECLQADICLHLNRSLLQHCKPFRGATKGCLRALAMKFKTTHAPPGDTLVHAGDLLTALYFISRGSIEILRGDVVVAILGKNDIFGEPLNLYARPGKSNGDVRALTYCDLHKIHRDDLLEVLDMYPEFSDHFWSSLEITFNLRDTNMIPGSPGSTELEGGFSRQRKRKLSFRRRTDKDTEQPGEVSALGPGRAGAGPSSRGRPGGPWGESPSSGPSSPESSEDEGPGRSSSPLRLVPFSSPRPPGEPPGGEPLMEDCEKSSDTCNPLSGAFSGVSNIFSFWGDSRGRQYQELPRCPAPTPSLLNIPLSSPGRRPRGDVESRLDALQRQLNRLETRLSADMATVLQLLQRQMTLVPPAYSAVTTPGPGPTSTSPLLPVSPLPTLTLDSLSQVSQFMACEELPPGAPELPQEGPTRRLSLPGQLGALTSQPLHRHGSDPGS
T2 sequence (P98170 whole entry): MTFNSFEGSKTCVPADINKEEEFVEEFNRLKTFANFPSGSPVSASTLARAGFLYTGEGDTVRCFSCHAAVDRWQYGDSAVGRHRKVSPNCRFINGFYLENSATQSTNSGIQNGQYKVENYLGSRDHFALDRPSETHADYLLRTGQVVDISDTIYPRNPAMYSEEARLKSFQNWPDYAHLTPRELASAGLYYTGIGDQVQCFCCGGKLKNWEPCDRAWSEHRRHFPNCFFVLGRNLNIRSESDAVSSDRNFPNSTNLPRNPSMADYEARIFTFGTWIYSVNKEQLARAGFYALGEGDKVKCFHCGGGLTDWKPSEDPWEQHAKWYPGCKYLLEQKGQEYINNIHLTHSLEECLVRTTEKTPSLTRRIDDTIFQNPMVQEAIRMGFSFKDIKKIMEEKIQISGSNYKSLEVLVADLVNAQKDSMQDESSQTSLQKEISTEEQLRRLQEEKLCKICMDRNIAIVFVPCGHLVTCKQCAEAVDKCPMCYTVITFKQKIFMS
Sequence of Beta-galactosidase (Q8VNN2 whole entry): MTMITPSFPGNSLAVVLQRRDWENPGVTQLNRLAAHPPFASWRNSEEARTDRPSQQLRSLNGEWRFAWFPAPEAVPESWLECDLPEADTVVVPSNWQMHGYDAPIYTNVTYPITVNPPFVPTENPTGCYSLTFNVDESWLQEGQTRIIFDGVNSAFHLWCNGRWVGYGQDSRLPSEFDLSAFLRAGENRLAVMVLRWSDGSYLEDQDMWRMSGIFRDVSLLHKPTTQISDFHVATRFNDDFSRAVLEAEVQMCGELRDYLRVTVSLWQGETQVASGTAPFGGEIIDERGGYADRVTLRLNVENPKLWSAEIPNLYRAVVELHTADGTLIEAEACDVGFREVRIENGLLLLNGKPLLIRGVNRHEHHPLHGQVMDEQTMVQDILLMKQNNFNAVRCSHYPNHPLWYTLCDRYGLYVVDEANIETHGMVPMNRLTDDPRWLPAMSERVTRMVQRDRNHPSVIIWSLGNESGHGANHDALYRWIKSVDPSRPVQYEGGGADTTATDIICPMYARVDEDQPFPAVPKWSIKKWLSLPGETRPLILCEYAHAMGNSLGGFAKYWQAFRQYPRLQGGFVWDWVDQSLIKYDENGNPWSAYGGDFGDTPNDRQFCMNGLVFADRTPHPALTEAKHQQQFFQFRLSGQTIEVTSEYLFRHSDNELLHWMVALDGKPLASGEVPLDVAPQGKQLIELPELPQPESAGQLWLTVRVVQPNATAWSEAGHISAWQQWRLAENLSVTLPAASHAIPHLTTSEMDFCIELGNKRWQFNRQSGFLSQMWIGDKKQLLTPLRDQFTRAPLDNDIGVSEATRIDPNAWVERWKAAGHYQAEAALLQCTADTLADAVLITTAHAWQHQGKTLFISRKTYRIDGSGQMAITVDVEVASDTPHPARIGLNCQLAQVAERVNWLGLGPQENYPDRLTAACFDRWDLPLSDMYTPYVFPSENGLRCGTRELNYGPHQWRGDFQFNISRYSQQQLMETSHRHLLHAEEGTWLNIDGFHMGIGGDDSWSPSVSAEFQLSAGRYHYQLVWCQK
Sequence of DNA dC->dU-editing enzyme APOBEC-3A (P31941 whole entry): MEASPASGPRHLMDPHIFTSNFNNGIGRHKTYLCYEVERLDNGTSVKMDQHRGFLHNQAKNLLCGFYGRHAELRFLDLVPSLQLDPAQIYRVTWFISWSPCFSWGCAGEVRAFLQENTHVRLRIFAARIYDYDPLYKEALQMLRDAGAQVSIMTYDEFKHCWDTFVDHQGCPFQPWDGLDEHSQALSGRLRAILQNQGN
Sequence of Cytochrome P450 3A4 (P08684 whole entry): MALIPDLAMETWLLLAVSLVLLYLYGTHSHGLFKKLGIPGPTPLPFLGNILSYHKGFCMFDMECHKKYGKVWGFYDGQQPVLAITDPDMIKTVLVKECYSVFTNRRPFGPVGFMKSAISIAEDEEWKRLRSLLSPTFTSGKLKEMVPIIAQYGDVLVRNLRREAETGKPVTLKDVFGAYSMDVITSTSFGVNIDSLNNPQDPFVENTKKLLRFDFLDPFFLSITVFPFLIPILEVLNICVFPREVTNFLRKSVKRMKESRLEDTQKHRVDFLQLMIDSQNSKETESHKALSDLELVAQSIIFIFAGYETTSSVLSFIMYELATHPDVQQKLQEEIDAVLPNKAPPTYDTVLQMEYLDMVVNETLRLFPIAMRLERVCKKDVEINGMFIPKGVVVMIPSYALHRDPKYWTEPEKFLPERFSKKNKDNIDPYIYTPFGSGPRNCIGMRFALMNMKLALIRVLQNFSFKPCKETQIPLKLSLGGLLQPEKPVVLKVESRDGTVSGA
Sequence of Cytochrome P450 2C19 (P33261 whole entry): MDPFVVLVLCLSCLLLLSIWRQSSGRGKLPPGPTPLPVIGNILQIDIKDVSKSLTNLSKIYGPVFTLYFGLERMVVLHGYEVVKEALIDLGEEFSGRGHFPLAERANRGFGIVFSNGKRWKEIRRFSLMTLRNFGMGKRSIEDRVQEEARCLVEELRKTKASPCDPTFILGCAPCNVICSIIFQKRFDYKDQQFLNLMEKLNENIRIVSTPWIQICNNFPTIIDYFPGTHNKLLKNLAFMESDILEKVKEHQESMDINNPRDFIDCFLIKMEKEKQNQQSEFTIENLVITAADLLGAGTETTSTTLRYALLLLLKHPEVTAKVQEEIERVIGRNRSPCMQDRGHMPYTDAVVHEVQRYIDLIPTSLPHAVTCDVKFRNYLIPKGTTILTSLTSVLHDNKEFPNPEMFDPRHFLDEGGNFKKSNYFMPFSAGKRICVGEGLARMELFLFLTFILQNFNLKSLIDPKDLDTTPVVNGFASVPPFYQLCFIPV
Sequence of DNA dC->dU-editing enzyme APOBEC-3G (Q9HC16 whole entry): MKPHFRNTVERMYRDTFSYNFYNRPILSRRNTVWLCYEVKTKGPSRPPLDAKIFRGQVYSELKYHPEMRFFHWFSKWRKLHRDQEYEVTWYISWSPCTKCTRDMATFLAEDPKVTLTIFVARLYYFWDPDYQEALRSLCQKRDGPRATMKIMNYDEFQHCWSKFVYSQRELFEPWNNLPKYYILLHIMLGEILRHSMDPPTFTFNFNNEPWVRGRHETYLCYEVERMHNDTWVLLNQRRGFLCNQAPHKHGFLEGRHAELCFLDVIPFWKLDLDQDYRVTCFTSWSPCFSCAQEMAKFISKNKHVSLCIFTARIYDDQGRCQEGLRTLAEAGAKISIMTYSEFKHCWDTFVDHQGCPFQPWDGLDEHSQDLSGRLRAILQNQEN

Consider `CCCCOC(=O)c1ccccc1C(=O)OCCCC` [DIBUTYL PHTHALATE], for which the AC50 in assay [1] was 79.4 µM (inconclusive).

Consider `O=C=Nc1ccc(Cc2ccc(N=C=O)cc2)cc1`, for which, in assay [1], the AC50 was 79.4 µM (inconclusive).

`CC1(C)Cc2cccc(OCC(=O)N3CCN(c4cccc(C(F)(F)F)c4)CC3)c2O1`: in [2], the IC50 is > 100 µM (inactive).

`COC(=O)c1ccc(/C=C/C(=O)c2ccc(OC)cc2)cc1`: the concentration for half-maximal inhibition (IC50) in assay [3] was > 100 µM (not active); in assay [4], > 100 µM (inactive).

In the case of `O=c1sc(Nc2ccccc2)nc2ccsc12`, the IC50 is 2.43 µM (active) in [5], 12.9 µM (inactive) in assay [6], > 66.2 µM (inactive) in the assay with CHO-K1 and > 49.8 µM (inactive) in assay [7].

As for `c1ccc(CCc2nc(-c3ccc(-n4cccc4)cc3)no2)cc1`, the half-inhibitory concentration (IC50) is > 100 µM (not active) in assay [3] and > 100 µM (inactive) in assay [4].

For the molecule `CN(/C=C/C1=[N+](C)c2ccccc2C1(C)C)c1ccccc1`, the half-maximal activity concentration (AC50) at Cytochrome P450 3A4 was 31.6 µM (inconclusive); at Cytochrome P450 2C19, 0.00708 µM (inconclusive). The IC50 in assay [8] is 1.67 µM (active); in assay [13] it was 2.31 µM (active). The concentration giving a half-maximal response (EC50) in assay [9] is > 60 µM (inconclusive); in [10], > 160 µM (inactive); in assay [11], > 38 µM (not active); in assay [12], 0.335 µM (active).

For `Cc1nn(CCC(=O)NN=C(S)Nc2ccccc2)c(C)c1Br`, the EC50 on Beta-galactosidase is > 40 µM (inactive). In addition, in assay [14], the half-inhibitory concentration (IC50) was > 40 µM (not active).

For the molecule `COc1ccc2c(c1)C(=O)[C@@H](O)[C@H](c1ccc(OC)c(Br)c1)O2`, the EC50 on Beta-galactosidase is > 40 µM (inactive). Also, the values for the IC50 (in the assay on H9c2; in assay [14]) were > 79 µM (inactive) and 34.6 µM (not active), respectively. The concentration at half-maximal activity (AC50) in the assay with INS1 is 4.2 µM (active).

Turning to `COC(=O)C1NN=C(C(=O)c2ccc(Cl)cc2)C1c1ccc(OC)cc1` (configuration not stated), the EC50 at Beta-galactosidase is > 40 µM (inactive); in assay [15] it was > 260 µM (inactive). For the same molecule, the IC50 in [14] was 28.4 µM (not active).

On to `COc1ccc(C(=O)NC2CC(C)(C)Cc3occc32)cc1` (configuration not stated), for which the cytotoxic concentration (CC50) in the assay on Vero was > 40 µM (active).

For `CC(/C=C/c1cccc(Oc2ccc(F)cc2)c1)N(O)C(N)=O` (configuration not stated), in assay [1], the concentration at half-maximal activity (AC50) is 0.2 µM (inconclusive).

With `Cc1cc(NC(=O)c2cnn3c(C(F)(F)F)cc(-c4ccccc4)nc23)no1`, the IC50 in assay [16] is 1.99 µM (active); in assay [17], > 16 µM (inactive).
